Data as given in patent US6673772B2, “Dipeptide compounds and their use as antiviral agents” (Sumitomo Pharmaceuticals Company Limited, priority 2000, dated 2004).

Key:
[1] = target: T1, recombinant HIV-1 protease (Human immunodeficiency virus type 1 group M subtype B, UniProt P04585); assay: Measurement of HIV protease inhibitory activity; assay type: biochemical; settings: 50 nM compound, 10.5 nM HIV-1 protease, pH 6.5, 37° C., 60 minutes; for inhibition at 0.05 µM: read-out: HIV protease inhibition rate (%) at 50 nM
T1 construct: 10.5 nM HIV-1 protease
Procedure: Measurement of HIV protease inhibitory activity
The protease inhibitory activity was measured according to the method reported by T. Mimoto et al., J. Med. Chem., 42, 1789-1802 (1999) by using a recombinant HIV-1 protease (see Biochemistry, 250, 9, 264 (1990)) and a synthesized peptide substrate (H-Ser-Gln-Asn-Tyr-Pro-Ile-Val-OH). Specifically, reaction solutions (15 μl each) containing any one of the compounds synthesized in the above Examples 1-15 and Reference Examples 1-4, an inhibitor in which a known anti-AIDS agent (nelfinavir) is dissolved in DMSO in different concentrations, 10.5 nM HIV-1 protease, 20 mM synthesized peptide substrate, and 100 mM MES buffer solution (pH 6.5) were incubated at 37° C. for 60 minutes. Peptide fragments produced by cleaving the Tyr-Pro bonds in the synthesized peptide substrate was quantitatively measured by reverse phase HPLC.

human plasma = assay: Protein binding to human plasma (ultrafiltration, unbound ratio); assay type: in vitro ADME; settings: concentration 1 μM; from regression line of FIG. 1; 18 hours at 37° C.
Procedure: Measurement of protein binding rate […] Freezed human plasma (HFFPP100) was used after thawing. Powder of human alpha 1-acid glycoprotein (supplied by SIGMA Co., hereinafter abbreviated to AAG) was dissolved in a phosphate buffer solution (PBS, pH 7.0) to a concentration of 1 mg/ml. […] Quantitative determination of unbound drug concentration […] All amount of the solution was transferred to Micropartition Devices (Centrifree®, Millipore Co.) and filtered by centrifugation at 1500 ×g for 20 minutes (using TOMY CX-210 high-speed cooling centrifugal machine). 200 μl of the filtrate was directly subjected to HPLC (Type: HITACHI D-7000, column: COSMOSIL (4.6* 250 mm, manufactured by Nacalai Tesque Co., Ltd.). The HPLC analysis was carried out by using a 59:41 (v/v) water-acetonitrile mixture containing 0.1% trifluoroacetic acid (TFA) as a mobile phase and measuring absorbance at 210 nm. The quantitative determination of unbound drug concentration was carried out based on the absolute calibration curve method using a calibration line obtained from the analysis of a standard sample which contains the drug at a known concentration. Analysis of protein binding properties A commonly accepted method (see Y. Odagiri et al., Protein Binding Experimental Method (1991), Hirokawa Publishing Co., Ltd.) was employed for the analysis of protein binding properties. […]

[2] = Plasma concentration after intraduodenal administration to rats; assay type: in vivo; settings: Sprague-Dawley, other: into the duodenum, rat, 10 mg/kg into the duodenum, 30 minutes after the administration
Procedure: A pharmacological experiment of the compound of the present invention was carried out using Sprague-Dawley rats (300-400 g). 10 mg/kg of a 50% polyethylene glycol (PEG) solution (1 ml/kg) was administered into the duodenum under anesthesia and blood was collected over time. After the addition of a solvent, the collected blood plasma sample was shaken and centrifuged. The organic layer was concentrated and dissolved in 50% methanol. The sample thus obtained was analyzed by HPLC for the determination of concentration of the compound in plasma. The HPLC analysis was carried out using Capecellpak C18 (4.6×150 mm, Shiseido LTD) as a column and a mixed solvent of 0.1% TFA aqueous solution and acetonitrile as an eluent (see T. Mimoto et al. J. Med. Chem., 42, 1789-1802, 1999).
The compound of the present invention was confirmed to have pharmacological characteristics expected as an in vivo effect of the compound. For instance, when the compound of Example 1 of the present invention is administered to a rat at a dose of 10 mg/kg into the duodenum, the compound is detected in plasma of the rat at a concentration of 0.42 μg/ml 30 minutes after the administration.

[3] = system: HIV virus (HIV-1 IIIB strain); assay: Measurement of anti-HIV activity (cytopathic effect, XTT) in CEM-SS cells; assay type: cell-based; settings: 6 days, in the presence of 50% human plasma
Procedure: Measurement of anti-HIV activity
The anti-HIV activity of the compounds synthesized Examples 1-15 and Reference Examples 1-4 was measured according to the method reported by 0. S. Weislow et al. (J. Natl. Cancer Inst. 81, 577-586, 1989) using CEM-SS cells as host cells and HIV virus (HIV-1 IIIB strain)(see T. Mimoto et al., J. Med. Chem., 42, 1789-1802, 1999, etc.).
Specifically, the compounds synthesized Examples 1-15 and […] in various concentrations were added to a culture medium on 96-well microtiter plates. Human blood serum was added to a final concentration of 50%, then HIV infected CEM-SS cells was added, followed by incubation in a CO2 atmosphere at 37° C. for 6 days. The cytopathic effect induced by HIV-1 IIIB was measured by tetrazolium dye XTT dyeing method to evaluate the 50% inhibitory concentration (IC50).

In the case of COc1ccc(C[C@H](NC(=O)c2cccc(O)c2C)[C@H](O)C(=O)N2CSC(C)(C)[C@H]2C(=O)NCc2ccccc2C)cc1 [Ex. 1, (R)-N-(2-methylbenzyl)-3-[(2S,3S)-2-hydroxy-3-(3-hydroxy-2-methylbenzoyl)amino-4-(4-methoxyphenyl)butanoyl]-5,5-dimethyl-1,3-thiazolidine-4-carboxamide], the inhibition at 0.05 µM [1] is reported as 95%, the “ratio of unbound drug (human plasma)” value (human plasma) is reported as 0.029 and the concentration at 30 min [2] is reported as 420 ng/mL.

COc1ccc(C[C@H](NC(=O)c2cccc(O)c2C)[C@H](O)C(=O)N2CSC(C)(C)[C@H]2C(=O)NCc2cc(F)ccc2C)cc1 [Ex. 2, (R)-N-(5-fluoro-2-methylbenzyl)-3-[(2S,3S)-2-hydroxy-3-(3-hydroxy-2-methyl-benzoyl)amino-4-(4-methoxyphenyl)butanoyl]-5,5-dimethyl-1,3-thiazolidine-4-carboxamide] gave an inhibition at 0.05 µM [1] of 97%.

Work on COc1ccc(C[C@H](NC(=O)c2ccc(F)c(O)c2C)[C@H](O)C(=O)N2CSC(C)(C)[C@H]2C(=O)NCc2ccccc2C)cc1 [Ex. 3, (R)-N-(2-methylbenzyl)-3-[(2S,3S)-2-hydroxy-3-(4-fluoro-3-hydroxy-2-methyl-benzoyl)amino-4-(4-methoxyphenyl)butanoyl]5,5-dimethyl-1,3-thiazolidine-4-carboxamide] yielded an inhibition at 0.05 µM [1] of 93%.

In the case of COc1ccc(C[C@H](NC(=O)c2cccc(N)c2Cl)[C@H](O)C(=O)N2CSC(C)(C)[C@H]2C(=O)NCc2ccccc2C)cc1 [Ex. 4, (R)-N-(2-methylbenzyl)-3-[(2S,3S)-2-hydroxy-3-(3-amino-2-chlorobenzoyl)amino-4-(4-methoxyphenyl)butanoyl]-5,5-dimethyl-1,3-thiazolidine-4-carboxamide], the inhibition at 0.05 µM [1] is reported as 91%.

Molecule CCOc1ccc(C[C@H](NC(=O)c2cccc(O)c2C)[C@H](O)C(=O)N2CSC(C)(C)[C@H]2C(=O)NCc2ccccc2C)cc1 [Ex. 5, (R)-N-(2-methylbenzyl)-3-[(2S,3S)-2-hydroxy-3-(3-hydroxy-2-methylbenzoyl)amino-4-(4-ethoxyphenyl)butanoyl]-5,5-dimethyl-1,3-thiazolidine-4-carboxamide] has an inhibition at 0.05 µM [1] of 95%.

In the case of Cc1ccccc1CNC(=O)[C@H]1N(C(=O)[C@@H](O)[C@H](Cc2ccc3c(c2)OCO3)NC(=O)c2cccc(O)c2C)CSC1(C)C [Ex. 6, (R)-N-(2-methylbenzyl)-3-[(2S,3S)-2-hydroxy-3-(3-hydroxy-2-methylbenzoyl)amino-4-(3,4-methylenedioxyphenyl)butanoyl]-5,5-dimethyl-1,3-thiazolidine-4-carboxamide], the inhibition at 0.05 µM [1] is reported as 97%.

Work on CCCOc1ccc(C[C@H](NC(=O)c2cccc(O)c2C)[C@H](O)C(=O)N2CSC(C)(C)[C@H]2C(=O)NCc2ccccc2C)cc1 [Ex. 7, (R)-N-(2-methylbenzyl)-3-[(2S,3S)-2-hydroxy-3-(3-hydroxy-2-methylbenzoyl)amino-4-(4-n-propoxyphenyl)butanoyl]-5,5-dimethyl-1,3-thiazolidine-4-carboxamide] yielded an inhibition at 0.05 µM [1] of 97%.

With Cc1ccccc1CNC(=O)[C@H]1N(C(=O)[C@@H](O)[C@H](Cc2ccc(OC(C)C)cc2)NC(=O)c2cccc(O)c2C)CSC1(C)C [Ex. 8, (R)-N-(2-methylbenzyl)-3-[(2S,3S)-2-hydroxy-3-(3-hydroxy-2-methylbenzoyl)amino-4-(4-isopropoxyphenyl)butanoyl]-5,5-dimethyl-1,3-thiazolidine-4-carboxamide] the inhibition at 0.05 µM [1] was 96%.

For Cc1ccc(C[C@H](NC(=O)c2cccc(O)c2C)[C@H](O)C(=O)N2CSC(C)(C)[C@H]2C(=O)NCc2ccccc2C)cc1 [Ex. 9, (R)-N-(2-methylbenzyl)-3-[(2S,3S)-2-hydroxy-3-(3-hydroxy-2-methylbenzoyl)amino-4-(4-metylphenyl)butanoyl]-5,5-dimethyl-1,3-thiazolidine-4-carboxamide], the “HIV protease inhibition rate (%) at 50 nM” value [1] was 97% and the “Anti-HIV IC50” value [3] was 0.02 µg/mL.

In the case of Cc1ccccc1CNC(=O)[C@H]1N(C(=O)[C@@H](O)[C@H](Cc2ccc(C(C)C)cc2)NC(=O)c2cccc(O)c2C)CSC1(C)C [Ex. 10, (R)-N-(2-methylbenzyl)-3-[(2S,3S)-2-hydroxy-3-(3-hydroxy-2-methylbenzoyl)amino-4-(4-isopropylphenyl)butanoyl]-5,5-dimethyl-1,3-thiazolidine-4-carboxamide], the inhibition at 0.05 µM [1] is reported as 96%.

In the case of Cc1ccccc1CNC(=O)[C@H]1N(C(=O)[C@@H](O)[C@H](Cc2ccc(Cl)cc2)NC(=O)c2cccc(O)c2C)CSC1(C)C [Ex. 11, (R)-N-(2-methylbenzyl)-3-[(2S,3S)-2-hydroxy-3-(3-hydroxy-2-methylbenzoyl)amino-4-(4-chlorophenyl)butanoyl]-5,5-dimethyl-1,3-thiazolidine-4-carboxamide], the inhibition at 0.05 µM [1] is reported as 97%.

CCOc1ccc(C[C@H](NC(=O)c2cccc(N)c2Cl)[C@H](O)C(=O)N2CSC(C)(C)[C@H]2C(=O)NCc2ccccc2C)cc1 [Ex. 12, (R)-N-(2-methylbenzyl)-3-[(2S,3S)-2-hydroxy-3-(3-amino-2-chlorobenzoyl)amino-4-(4-ethoxyphenyl)butanoyl]-5,5-dimethyl-1,3-thiazolidine-4-carboxamide] showed an inhibition at 0.05 µM [1] of 89%.

In the case of Cc1ccccc1CNC(=O)[C@H]1N(C(=O)[C@@H](O)[C@H](Cc2ccc3c(c2)OCO3)NC(=O)c2cccc(N)c2Cl)CSC1(C)C [Ex. 13, (R)-N-(2-methylbenzyl)-3-[(2S,3S)-2-hydroxy-3-(3-amino-2-chlorobenzoyl)amino-4-(3,4-methylenedioxyphenyl)butanoyl]-5,5-dimethyl-1,3-thiazolidine-4-carboxamide], the inhibition at 0.05 µM [1] is reported as 95%.

Work on COc1ccc(C[C@H](NC(=O)c2cccc(N)c2Cl)[C@H](O)C(=O)N2CSC(C)(C)[C@H]2C(=O)NCc2c(C)cccc2C)cc1 [Ex. 14, (R)-N-(2,6-dimethylbenzyl)-3-[(2S,3S)-2-hydroxy-3-(3-amino-2-chlorobenzoyl)amino-4-(4-methoxyphenyl)butanoyl]-5,5-dimethyl-1,3-thiazolidine-4-carboxamide] yielded an inhibition at 0.05 µM [1] of 92%.

With Cc1cccc(C)c1CNC(=O)[C@H]1N(C(=O)[C@@H](O)[C@H](Cc2ccc3c(c2)OCO3)NC(=O)c2cccc(N)c2Cl)CSC1(C)C [Ex. 15, (R)-N-(2,6-dimethylbenzyl)-3-[(2S,3S)-2-hydroxy-3-(3-amino-2-chlorobenzoyl)amino-4-(3,4-methylenedioxyphenyl)butanoyl]-5,5-dimethyl-1,3-thiazolidine-4-carboxamide] the inhibition at 0.05 µM [1] was 96%.

Molecule Cc1c(O)cccc1C(=O)N[C@@H](CSc1ccccc1)[C@H](O)CN1C[C@H]2CCCC[C@H]2C[C@H]1C(=O)NC(C)(C)C [Re. 5, nelfinavir, reference compound] has an inhibition at 0.05 µM [1] of 93%.
